Tested on: expression of Fwa116 in human blood vessel endothelia cell
Assay: Effect of ox-LDL and soybean genistein on expression of Fwa116 (Northern blotting)
Format: cell-based
Conditions: cells treated with ox-LDL (200 μg/mL) and soybean genistein (100 μM) simultaneously, FIG. 3
Description: Low density lipoproteins (LDL) with a density of 1.019 to 1.063 obtained by density gradient centrifugation were oxidized with Cu^2+ for 24 hours, filtrated through a 0.22 μm filter membrane, and stored at 4[…] in a dark place. The value of TBARS was determined and the ox-LDL was separated by electrophoresis on agarose gel. More than 10 nmol/mg of TBARS value and the increase of electrophoretic mobility indicated successful oxidation.
The frozen tube containing human blood vessel endothelia cells was taken out from liquid-nitrogen, and put rapidly into a water bath at 37[…]]. After being melted completely, the cell suspension was inoculated to a 25 mL culture bottle containing 5 mL of RPMI or DMEM with 10% FES. Culture was carried out overnight in an incubator at 37[…] and 5% of CO2 concentration. The medium was replaced on the next day.
When Cells were grown to substantial confluency (with a covering percentage of around 80%), the original medium was discarded. After Cells were rinsed twice with 1× PBS (pH7.4), 0.125% trypsin was added, and the cells were digested for 5-10 minutes at 37 °C. […] The number of cells was counted, and the cell suspension was inoculated to a culture bottle containing 5 mL of RPMI or DMEM with 10% FES to a concentration of 100,000 cells/mL. […]

O=c1c(-c2ccc(O)cc2)coc2cc(O)cc(O)c12 [soybean genistein, genistein]
increase of expression of Fwa116: more than 10 fold
